The results in this text go back to patent US20080261994A1, “CYCLOPROPANE COMPOUNDS AND PHARMACEUTICAL USE THEREOF” (Japan Tobacco Inc., priority 2003, published 2008).

One may read the IC50 as the concentration that gives 50% inhibition.

What all share (type): biochemical
One test deals with T1, Recombinant Human MMP-13 (Homo sapiens, UniProt P45452).
T1 construct: purchased R&D systems 511-MM
The test is described as follows: MMP-13 inhibitory activity (MMP-13 specific fluorescent substrate with quencher). Particulars: Recombinant Human MMP-13, fluorescent substrate, 25° C. for 1 h; read-out: IC50 MMP13 (Experimental Example 3). The gist of the method: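 Recombinant human MMP-13 with test compound, reaction started with quenched fluorogenic peptide 7-MCA-Pro-CHA-Gly-NVal-His-Ala-DPA in Tris-HCl buffer, 1 h at 25 °C, stopped with acetic acid. Fluorescence at Ex 325/Em 405 nm; % inhibition versus enzyme-free and inhibitor-free wells, reported as IC50 (μM).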

A further test concerns the target T2, MMP-1 (Homo sapiens, UniProt P03956).
T2 sequence (P03956 100-469): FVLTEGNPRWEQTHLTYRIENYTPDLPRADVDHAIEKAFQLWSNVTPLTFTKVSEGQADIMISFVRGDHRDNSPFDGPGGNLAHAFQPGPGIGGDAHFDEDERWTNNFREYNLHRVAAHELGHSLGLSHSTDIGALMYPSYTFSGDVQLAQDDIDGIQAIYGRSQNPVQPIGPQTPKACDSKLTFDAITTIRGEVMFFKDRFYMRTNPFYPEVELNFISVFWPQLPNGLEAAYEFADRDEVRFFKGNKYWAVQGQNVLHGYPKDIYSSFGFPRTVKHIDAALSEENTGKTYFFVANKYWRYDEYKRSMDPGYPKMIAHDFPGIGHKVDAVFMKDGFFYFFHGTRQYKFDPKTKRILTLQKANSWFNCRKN
The test is described as follows: MMP-1 inhibitory action (Type I collagen Activity Measurement kit, FITC-labeled collagen type I). The following applies: MMP-1 inhibitory action, FITC-labeled collagen type I, 37° C. for 3 hr; read-out: IC50 MMP1 (Experimental Example 2).

A further test concerns the target T3, aggrecanase-1 (Homo sapiens, UniProt O75173).
T3 sequence (O75173 213-837): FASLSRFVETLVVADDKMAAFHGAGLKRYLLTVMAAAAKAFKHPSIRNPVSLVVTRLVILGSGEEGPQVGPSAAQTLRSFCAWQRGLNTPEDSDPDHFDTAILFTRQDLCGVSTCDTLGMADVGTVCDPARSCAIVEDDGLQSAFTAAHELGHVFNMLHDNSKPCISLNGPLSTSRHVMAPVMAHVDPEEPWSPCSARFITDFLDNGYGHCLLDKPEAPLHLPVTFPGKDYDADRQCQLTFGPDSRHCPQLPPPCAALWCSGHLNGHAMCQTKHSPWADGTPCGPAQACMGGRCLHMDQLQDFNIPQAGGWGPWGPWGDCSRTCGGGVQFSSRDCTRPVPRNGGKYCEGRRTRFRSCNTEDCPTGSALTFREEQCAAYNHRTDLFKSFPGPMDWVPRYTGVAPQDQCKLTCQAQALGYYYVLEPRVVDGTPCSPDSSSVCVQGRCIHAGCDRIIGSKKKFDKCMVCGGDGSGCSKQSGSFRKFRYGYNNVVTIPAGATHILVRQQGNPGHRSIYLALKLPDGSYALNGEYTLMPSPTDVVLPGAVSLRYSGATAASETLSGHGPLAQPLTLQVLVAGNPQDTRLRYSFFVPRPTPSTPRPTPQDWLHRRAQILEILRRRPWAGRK
The test is described as follows: Aggrecanase-1 inhibitory action (Particle Assay, GAG release from aggrecan-containing polyacrylamide particles). The following applies: aggrecanase-1 inhibitory action; read-out: IC50 AG1 (Experimental Example 1). Put shortly: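 Enzyme and compound incubated with aggrecan-containing polyacrylamide particles in Tris-HCl buffer at 37° C for 15 h. Released GAG in supernatant measured with 1,9-dimethylmethylene blue at 595 nm against chondroitin sulfate standard; % inhibition from enzyme-free and inhibitor-free wells, reported as TC50 (μM).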

On to `O=C(O)[C@]1(NS(=O)(=O)c2ccc(-c3noc(C(F)(F)C(F)(F)F)n3)s2)C[C@@H]1c1ccccc1` [Example 2-45], for which the IC50 at Recombinant Human MMP-13 is no less than 1000 nM; on MMP-1, no less than 10 µM; at aggrecanase-1 it was no less than 1000 nM.
On to `C=CC1CC1(NS(=O)(=O)c1ccc(-c2ccc(Cl)cc2)s1)C(=O)O` (stereo not drawn) [Example 2-46], for which the IC50 was no less than 1000 nM at Recombinant Human MMP-13, no less than 10 µM on MMP-1 and no less than 1000 nM at aggrecanase-1.
As for `O=C(O)C1(NS(=O)(=O)c2ccc(-c3ccc(Cl)cc3)s2)CC1Cn1nnc2ccccc2c1=O` (stereo not drawn) [Example 2-47], the values for the IC50 at Recombinant Human MMP-13, at MMP-1 and at aggrecanase-1 were less than 1000 nM, no less than 10 µM and no less than 1000 nM, respectively.
`CCC1CC1(NS(=O)(=O)c1ccc(-c2ccc(Cl)cc2)s1)C(=O)O` (stereo not drawn) [Example 2-48]: the figures for the IC50 on Recombinant Human MMP-13, at MMP-1 and at aggrecanase-1 were no less than 1000 nM, no less than 10 µM and less than 1000 nM, respectively.
The matching figures for `CN(C)CCOc1ccccc1C1CC1(NS(=O)(=O)c1ccc(-c2ccc(Cl)cc2)s1)C(=O)O` (stereo not drawn) [Example 2-49]: no less than 10000 nM, no less than 10 µM and no less than 1000 nM.
For `Cc1nc(-c2ccc(S(=O)(=O)N[C@@]3(C(=O)O)C[C@@H]3c3ccccc3)s2)cs1` [Example 2-50], in that order: no less than 1000 nM, no less than 10 µM and no less than 1000 nM.
For `Cc1nc(-c2ccc(S(=O)(=O)N[C@@]3(C(=O)O)C[C@@H]3c3ccccc3)s2)no1` [Example 2-51], the IC50 on Recombinant Human MMP-13 was no less than 1000 nM; on MMP-1, no less than 10 µM; at aggrecanase-1, no less than 1000 nM.
For the compound `O=C(O)C1(NS(=O)(=O)c2ccc(-c3ccc(Cl)cc3)s2)CC1COc1ccccc1` (stereo not drawn) [Example 2-52], the figures for the IC50 at Recombinant Human MMP-13, on MMP-1 and on aggrecanase-1 were less than 1000 nM, no less than 10 µM and less than 1000 nM, respectively.
On to `CC(C)(C)NCCOc1ccccc1C1CC1(NS(=O)(=O)c1ccc(-c2ccc(Cl)cc2)s1)C(=O)O` (stereo not drawn) [Example 2-53], for which the IC50 on Recombinant Human MMP-13 was no less than 1000 nM; at MMP-1 it was no less than 10 µM; on aggrecanase-1 it was no less than 1000 nM.
Turning to `CC1(C)COC(c2ccc(S(=O)(=O)N[C@@]3(C(=O)O)C[C@@H]3c3ccccc3)s2)=N1` [Example 2-54], the IC50 on Recombinant Human MMP-13 is no less than 10000 nM; on MMP-1 it was no less than 10 µM; at aggrecanase-1, no less than 1000 nM.
For `Cc1ncc(-c2ccc(S(=O)(=O)N[C@@]3(C(=O)O)C[C@@H]3c3ccccc3)s2)s1` [Example 2-55], the IC50 on Recombinant Human MMP-13 is no less than 10000 nM; at MMP-1 it was no less than 10 µM; on aggrecanase-1, no less than 1000 nM.
As to `O=C(O)C1(NS(=O)(=O)c2ccc(-c3ccc(Cl)cn3)s2)CC1c1cccc(Cn2cccn2)c1` (stereo not drawn) [Example 2-56], the values for the half-inhibitory concentration (IC50) at Recombinant Human MMP-13, at MMP-1 and at aggrecanase-1 were less than 100 nM, no less than 10 µM and less than 100 nM, respectively.
`COCc1cccc(C2CC2(NS(=O)(=O)c2ccc(-c3ccc(Cl)cn3)s2)C(=O)O)c1` (stereo not drawn) [Example 2-57]: the IC50 at Recombinant Human MMP-13 was less than 100 nM; at MMP-1, no less than 10 µM; at aggrecanase-1, less than 1000 nM.
With `O=C(O)C1(NS(=O)(=O)c2ccc(-c3ccc(Cl)cc3)s2)CC1C1CCC1` (stereo not drawn) [Example 2-58], the IC50 at Recombinant Human MMP-13 was less than 1000 nM; on MMP-1, no less than 10 µM; on aggrecanase-1, less than 1000 nM.
On to `CC(C)C1CC1(NS(=O)(=O)c1ccc(-c2ccc(Cl)cc2)s1)C(=O)O` (stereo not drawn) [Example 2-59], for which the IC50 at Recombinant Human MMP-13 was less than 1000 nM; on MMP-1, no less than 10 µM; on aggrecanase-1, less than 1000 nM.
`O=C(O)[C@]1(NS(=O)(=O)c2ccc(-c3nc(C(F)(F)F)cs3)s2)C[C@@H]1c1ccccc1` [Example 2-60]: the values for the IC50 at Recombinant Human MMP-13, at MMP-1 and on aggrecanase-1 were no less than 1000 nM, no less than 10 µM and no less than 10000 nM, respectively.
Consider `O=C(O)C1(NS(=O)(=O)c2ccc(-c3ccc(Cl)cc3)s2)CC1C1CCCC1` (stereo not drawn) [Example 2-61], for which the 50% inhibitory concentration (IC50) was less than 1000 nM at Recombinant Human MMP-13, no less than 10 µM at MMP-1 and less than 1000 nM on aggrecanase-1.
Turning to `CC(C)(C)C1CC1(NS(=O)(=O)c1ccc(-c2ccc(Cl)cc2)s1)C(=O)O` (stereo not drawn) [Example 2-62], the values for the IC50 at Recombinant Human MMP-13, on MMP-1 and at aggrecanase-1 were less than 1000 nM, no less than 10 µM and less than 1000 nM, respectively.
For the compound `O=C(O)C1(NS(=O)(=O)c2ccc(-c3ccc(Cl)cn3)s2)CC1c1ccccc1CO` (stereo not drawn) [Example 2-63], the IC50 is less than 100 nM on Recombinant Human MMP-13, no less than 1 µM at MMP-1 and less than 100 nM on aggrecanase-1.
As for `COc1ccc(N2CCN(S(=O)(=O)NC3(C(=O)O)CC3c3ccccc3)CC2)cc1` (stereo not drawn) [Example 2-64], the IC50 on Recombinant Human MMP-13 was no less than 1000 nM; at MMP-1, no less than 10 µM; at aggrecanase-1 it was no less than 10000 nM.
`O=C(O)C1(NS(=O)(=O)c2ccc(-c3ccc(O)cc3)s2)CC1c1ccccc1` (stereo not drawn) [Example 2-65]: the IC50 on Recombinant Human MMP-13 was less than 1000 nM; on MMP-1, no less than 10 µM; at aggrecanase-1, less than 1000 nM.
As for `CC(=O)c1ccc(S(=O)(=O)NC2(C(=O)O)CC2c2ccccc2)s1` (stereo not drawn) [Example 2-66], the IC50 at Recombinant Human MMP-13 is no less than 1000 nM; on MMP-1 it was no less than 10 µM; at aggrecanase-1, no less than 1000 nM.
`O=C(O)C1(NS(=O)(=O)N2CCN(c3ccc(F)cc3)CC2)CC1c1ccccc1` (stereo not drawn) [Example 2-67]: the IC50 at Recombinant Human MMP-13 was less than 1000 nM; at MMP-1 it was no less than 10 µM; on aggrecanase-1, no less than 10000 nM.
For `O=C(O)C1(NS(=O)(=O)N2CCN(c3ccc(C(F)(F)F)cn3)CC2)CC1c1ccccc1` (stereo not drawn) [Example 2-68], the IC50 was less than 100 nM on Recombinant Human MMP-13, no less than 10 µM at MMP-1 and no less than 1000 nM on aggrecanase-1.
The matching figures for `COCCN(C)C(=O)c1cccc(C2CC2(NS(=O)(=O)c2ccc(-c3ccc(Cl)cc3)s2)C(=O)O)c1` (stereo not drawn) [Example 2-69]: less than 100 nM, no less than 1 µM and less than 100 nM.
The matching figures for `COCCN(C)C(=O)c1ccccc1C1CC1(NS(=O)(=O)c1ccc(-c2ccc(Cl)cc2)s1)C(=O)O` (stereo not drawn) [Example 2-71]: less than 1000 nM, no less than 10 µM and less than 100 nM.
For `O=C(NCCO)c1ccccc1C1CC1(NS(=O)(=O)c1ccc(-c2ccc(Cl)cc2)s1)C(=O)O` (stereo not drawn) [Example 2-72], in that order: less than 1000 nM, no less than 10 µM and less than 100 nM.
Regarding `O=C(c1cccc(C2CC2(NS(=O)(=O)c2ccc(-c3ccc(Cl)cc3)s2)C(=O)O)c1)N1CCOCC1` (stereo not drawn) [Example 2-73], the figures for the IC50 at Recombinant Human MMP-13, at MMP-1 and at aggrecanase-1 were less than 1000 nM, no less than 10 µM and less than 100 nM, respectively.
Turning to `CC(C)(CO)NC(=O)c1cccc(C2CC2(NS(=O)(=O)c2ccc(-c3ccc(Cl)cc3)s2)C(=O)O)c1` (stereo not drawn) [Example 2-74], the IC50 was less than 100 nM at Recombinant Human MMP-13, no less than 10 µM at MMP-1 and less than 1000 nM on aggrecanase-1.
The matching figures for `O=C(NCCO)c1cccc(C2CC2(NS(=O)(=O)c2ccc(-c3ccc(Cl)cc3)s2)C(=O)O)c1` (stereo not drawn) [Example 2-75]: less than 1000 nM, no less than 10 µM and less than 1000 nM.
For `O=C(c1ccccc1C1CC1(NS(=O)(=O)c1ccc(-c2ccc(Cl)cc2)s1)C(=O)O)N1CCOCC1` (stereo not drawn) [Example 2-76], in that order: less than 1000 nM, no less than 10 µM and less than 100 nM.
As for `CC1(C)COC(c2ccccc2C2CC2(NS(=O)(=O)c2ccc(-c3ccc(Cl)cc3)s2)C(=O)O)=N1` (stereo not drawn) [Example 2-77], the IC50 on Recombinant Human MMP-13 is less than 1000 nM; on MMP-1, no less than 1 µM; on aggrecanase-1 it was less than 100 nM.
The matching figures for `CC(C)(CO)NC(=O)c1ccccc1C1CC1(NS(=O)(=O)c1ccc(-c2ccc(Cl)cc2)s1)C(=O)O` (stereo not drawn) [Example 2-78]: less than 1000 nM, no less than 10 µM and less than 100 nM.
Consider `Cc1ncc(-c2ccc(S(=O)(=O)NC3(C(=O)O)CC3c3ccccc3)s2)o1` (stereo not drawn) [Example 2-79], for which the half-maximal inhibitory concentration (IC50) at Recombinant Human MMP-13 was no less than 10000 nM; at MMP-1 it was no less than 10 µM; at aggrecanase-1, no less than 10000 nM.
Consider `CC(=O)c1ccc(S(=O)(=O)NC2(C(=O)O)CC2c2ccccc2)cc1` (stereo not drawn) [Example 2-80], for which the IC50 was no less than 10000 nM at Recombinant Human MMP-13, no less than 10 µM on MMP-1 and no less than 10000 nM at aggrecanase-1.
